Consider nine molecules from EP0644191A1, “PYRIDINE COMPOUND AND MEDICINAL USE THEREOF” (YOSHITOMI PHARMACEUTICAL INDUSTRIES, LTD., priority 1992, dated 1993).

Series [1] concerns Candida albicans IFO 1060. The experiment in a line: Antifungal spectrum, agar plate dilution MIC. The series is classed as cell-based. Conditions: IFO1060, 37°C, 8% CO₂, 3-4 days.
For the next series, the system named is Helicobacter pylori. The experiment in a line: Antibacterial activity (in vitro), agar plate dilution method, clinical isolates (18 strains). The series is classed as cell-based. Conditions: 18 clinical isolates, 37°C, 8% CO₂, 3-4 days. How it is done: Antibacterial activity (in vitro) of the compound of the present invention against Helicobacter pylori was determined by the following agar plate dilution method. […] The cultures were diluted with Brucella broth to give a concentration of approximately 10⁶ cell/ml. The diluted bacterial solution was spot inoculated with a microplanter on an agar plate containing 2-fold dilution concentration series of the test compound. The cells were incubated at 37°C under 8% CO₂ for 3-4 days. The minimum inhibitory concentration (MIC) in respective strains was determined, based on which MIC₅₀ and MIC₉₀ were calculated.

The subject of series [2] is Staphylococcus aureus FDA 209P. The experiment in a line: Antibacterial spectrum, agar plate dilution MIC. The series is classed as cell-based. Conditions: FDA209P, 37°C, 8% CO₂, 3-4 days, read-out: MIC S. aureus. How it is done: (§1) The test bacterium precultured in Muller-Hinton liquid medium was diluted with the same medium to give a bacterial solution of about 10⁶ cell/ml for inoculation. The dilute bacterial solution was spot inoculated with a microplanter on an agar plate containing 2-fold dilution concentration series of the test compound and the cells were incubated at 37°C under 8% CO₂ for 3-4 days. The minimum inhibitory concentration (MIC) in respective strains was determined, based on which MIC was calculated.

The subject of series [3] is Escherichia coli NIHJ JC-2. The experiment in a line: Antibacterial spectrum, agar plate dilution MIC. Conditions: NIHJJC2, 37°C, 8% CO₂, 3-4 days. The series is classed as cell-based. On the procedure: as §1
The test system of series [4] is Pseudomonas aeruginosa IFO 12582. The experiment in a line: Antibacterial spectrum, agar plate dilution MIC. The series is classed as cell-based. Conditions: IFO12582, 37°C, 8% CO₂, 3-4 days, read-out: MIC P. aeruginosa. On the procedure:
as §1

Series [5] can be described thus: Aspirin/hydrochloric acid-induced gastric ulcer in rats. The series is classed as in vivo. Conditions: for Ulcer index (mean±standard deviation): 30 min before aspirin 100 mg/kg, stomach removed 4 hours later, control 5.0±0.51; for Change (%): change of ulcer index versus control. How it is done: Male rats weighing about 200 g (16 rats per group) were fasted for 20 hours and the test solution was orally administered to the rats. Thirty minutes later, aspirin (100 mg/kg) containing 0.3N hydrochloric acid was orally administered.
Four hours later, the stomach was removed and the area which developed ulcer was examined. A square root of the total ulcer area was taken as an ulcer index.

A short description of series [6]: Acute toxicity in mice, observed for 5 days. The series is classed as in vivo. The text has this:
As a result, no death case was found.

SMILES strings stand for the structures. Converted amounts (≈) assume the structure as drawn. A value given as a limit tells only on which side of the number the result lay.

On to `Cc1c(SCCN2CCOCC2)ccnc1CSc1nc2ccccc2[nH]1` [Example 1, 2-(3-methyl-4-(2-morpholinoethylthio)-2-pyridyl)methylthio-1H-benzimidazole], for which the MIC in series [1], in series [2], in series [3] and in series [4] was above 100 µg/mL in each case. The MIC50 against Helicobacter pylori is at most 0.006 µg/mL. Also, in the series with Helicobacter pylori, the MIC90 was 0.012 µg/mL (≈ 0.03 µM). Also, the “Ulcer index (mean±standard deviation)” value in series [5] (10 mg/kg p.o.) is recorded as 3.1±0.33; in series [5] (30 mg/kg p.o.), 2.3±0.49. The “Change (%)” value in series [5] (10 mg/kg p.o.) is -37%; in series [5] (30 mg/kg p.o.), -55%.
With `Cc1c(SCCN2CCc3ccccc3C2)ccnc1CSc1nc2ccccc2[nH]1` [Example 2, 2-(3-methyl-4-(2-(1,2,3,4-tetrahydroisoquinolin-2-yl)ethylthio)-2-pyridyl)methylthio-1H-benzimidazole], the MIC in series [1], in series [2], in series [3] and in series [4] was above 100 µg/mL in each case. Besides, the death entry in series [6] (intraperitoneally 300 mg/kg) and in series [6] (orally 1000 mg/kg) was “no death case” each time. In the series with Helicobacter pylori, this molecule had an MIC50 of at most 0.006 µg/mL. This molecule came in with an MIC90 in the series with Helicobacter pylori of at most 0.006 µg/mL.
`Cc1c(SCCN(C)Cc2ccccc2)ccnc1CSc1nc2ccccc2[nH]1` [Example 3]: the MIC in series [1], in series [2], in series [3] and in series [4] was above 100 µg/mL each time. This molecule also showed an MIC50 with Helicobacter pylori of 0.025 µg/mL (≈ 0.0575 µM). Besides, the MIC90 against Helicobacter pylori is 0.05 µg/mL (≈ 0.115 µM).
Take `Cc1c(SC2CCN(Cc3ccccc3)CC2)ccnc1CSc1nc2ccccc2[nH]1` [Example 7, 2-(4-(1-benzyl-4-piperidyl)thio-3-methyl-2-pyridyl)methylthio-1H-benzimidazole]: the MIC in series [1], in series [2], in series [3] and in series [4] was above 100 µg/mL each time. In the series with Helicobacter pylori, this molecule returned an MIC50 of 0.012 µg/mL (≈ 0.026 µM). The molecule further returned an MIC90 against Helicobacter pylori of 0.025 µg/mL (≈ 0.0543 µM).
In the series on Helicobacter pylori, `Cc1c(SCCN2CCc3ccccc3C2)ccnc1CSc1nc2ncccc2[nH]1` [Example 12, 2-((3-methyl-4-(2-(1,2,3,4-tetrahydroisoquinolin-2-yl)ethylthio)-2-pyridyl)methylthio)imidazo[5,4-b]pyridine] displayed an MIC50 of 0.012 µg/mL (≈ 0.0268 µM) and an MIC90 of 0.025 µg/mL (≈ 0.0558 µM).
Take `Cc1c(SCC[N+]2([O-])CCOCC2)ccnc1CSc1nc2ccccc2[nH]1` [Example 28, 4-(2-((2-(1H-benzimidazol-2-yl)thiomethyl-3-methyl-4-pyridyl)thio)ethyl)morpholine N-oxide]: the MIC in series [1], in series [2], in series [3] and in series [4] was above 100 µg/mL throughout. Further, the MIC50 in the series on Helicobacter pylori came out at 0.025 µg/mL (≈ 0.06 µM). The same molecule gave an MIC90 with Helicobacter pylori of 0.025 µg/mL (≈ 0.06 µM).
As to `Cc1c(OCCN2CCc3ccccc3C2)ccnc1CSc1nc2ccccc2[nH]1` [Ref. Compound 1, 2-(3-methyl-4-(2-(1,2,3,4-tetrahydroisoquinolin-2-yl)ethoxy)-2-pyridyl)methylthio-1H-benzimidazole, reference compound], in the series on Helicobacter pylori, the MIC50 is 0.05 µg/mL (≈ 0.116 µM) and the MIC90 amounted to 0.1 µg/mL (≈ 0.232 µM).
For `Cc1c(OCCN(C)Cc2ccccc2)ccnc1C[S+]([O-])c1nc2ccccc2[nH]1` (centres unmarked) [Ref. Compound 2, 2-(3-methyl-4-(2-(N-benzyl-N-methylamino)ethoxy)-2-pyridyl)methylsulfinyl-1H-benzimidazole, reference compound] the same measures were 0.1 µg/mL (≈ 0.23 µM) and 0.2 µg/mL (≈ 0.46 µM).
Turning to `Cc1c(OCCN2CCc3ccccc3C2)ccnc1C[S+]([O-])c1nc2ccccc2[nH]1` (centres unmarked) [Ref. Compound 3, 2-(3-methyl-4-(2-(1,2,3,4-tetrahydroisoquinolin-2-yl)ethoxy)-2-pyridyl)methylsulfinyl-1H-benzimidazole, reference compound], in the series with Helicobacter pylori, the MIC50 came out at 0.05 µg/mL (≈ 0.112 µM) and the MIC90 amounted to 0.1 µg/mL (≈ 0.224 µM).

One may read the MIC as the lowest concentration that inhibits growth of the organism. Broadly, the MIC50 is an inhibitory concentration at the 50% level, which refers to growth in some studies and to a panel of isolates in others. Low values mean greater potency, high ones weaker potency. As a reminder, the MIC90 is an inhibitory concentration at the 90% level, which refers to growth in some studies and to a panel of isolates in others. Low values mean higher susceptibility, high ones lower susceptibility.
